# “Also recorded” adds a separate entry of the source. Where a SMILES comes first, the peptide text is derived from it.
# How the values were obtained:
# [1] = tested on: ComREXTRA in HEK-XIP cells; assay: SEAP expression by monoclonal cell line HEK-XIP / monoclonal clones; format: cell-based, Streptococcus vestibularis; conditions: 24 h; for SEAP level vs non-induced (significance): peptides from human sequence BLAST (Supplementary Figure 14c,d), n = 4; for SEAP induction in HEK-XIP cells (result in words): specificity / orthogonality screening, vs non-induced control
# Description: HEK‐293T or hMSC‐TERT cells were seeded in a 24‐well plate at a density of 5× 10^4 cells per well for 24 h. Then the cells were co‐transfected with 1000 ng of plasmid mixture containing pJH1611 (ITR‐OSTAT3‐SEAP‐P2A‐mINS‐pA:PRPBSA‐ECFP‐P2A‐PuroR‐pA‐ITR), pJH1618 (ITR‐PhCMV‐STAT3‐pA:PRPBSA‐ECFP‐P2A‐PuroR‐pA‐ITR), pJH1632 (ITR‐PSV40‐SP‐ComRK155R/F158Y/R186S/S222N/C17S‐EpoR‐IL‐6RB‐pA: PhCMV‐ZeoR‐P2A‐mRuby‐pA‐ITR) and the Sleeping Beauty transposase pJH42 (PhCMV‐SB100X‐pA)^[ [6], [44] ^] at the molar ratio of 2:10:50:6. After 24 h of transfection, the cells were transferred into the medium containing 0.5 µg ml^−1 puromycin, 5 µg ml^−1 blasticidin, and 100 µg ml^−1 of zeocin for antibiotic selection for three days. Then the polyclonal population of engineered cells was suspended in DMEM medium and separated by fluorescence‐activated cell sorting (FACS, BD FACS ARIA FUSION, BD Biosciences) using yPET (517/530), mRuby (558/605), and iRFP (690/713) fluorescence. The triple‐positive population was isolated into single cells and further cultured in 96‐well plates in medium containing the three selection antibiotics. After two weeks of clonal expansion, monoclonal cell lines were screened by the addition of XIP and the best‐in‐class cell line was selected for follow‐up experiments. Fluorescence‐based flow cytometry was performed to confirm triple‐positive fluorescence for the best‐in‐class cell line.
# SEAP reporter levels in cell culture supernatants were quantified using a colorimetric assay. In brief, 20 µl of cell culture supernatant was mixed with 80 µl of PBS buffer (cat. no. 14190144, ThermoFisher) and heat‐inactivated at 65 °C for 30 min. Then 80 µl of 2x SEAP assay buffer (20 mM homoarginine, 1 mM MgCl2, 21% diethanolamine, pH 9.8) was mixed with 20 µl of substrate solution, and 100 µl of the buffer‐substrate mixture was added to 100 µl of the diluted heat‐inactivated sample. Absorbance at 405 nm was recorded using a plate reader (Tecan Spark, Tecan Group Ltd., Switzerland) for 30 min at 37 °C to determine the SEAP levels.
# [2] = tested on: engineered mammalian cells; assay: Resazurin-based cell viability assay; conditions: 50 and 250 µmol/L, 24 h, n = 4
# Description: Cells were incubated with resazurin (cat. no. R7017, Sigma‐Aldrich, USA) at a concentration of 50 µg ml^−1 for 2 h. Then fluorescence was assayed with a plate reader (Tecan Spark, Tecan Group Ltd., Switzerland) at excitation and emission wavelengths of 540 and 590 nm, respectively. The fluorescence intensity of non‐induced cells was set to 100%.
# [3] = tested on: CD4 / CD8 T cells of immunized mice; assay: T-cell response, intracellular cytokine staining; format: in vivo, mouse; conditions: FACS intracellular cytokine staining, spleen and draining lymph nodes, n = 3
# Description: Mice were immunized at 2‐week intervals.
# Isolated lymphocytes from spleens and lymph nodes were placed in a U‐bottom 96‐well plate and resuspended in 100 µl complete RPMI‐1640 medium, which contains FBS (10% v/v), HEPES (pH 7.2∼7.5, 1% v/v, Gibco), penicillin/streptomycin (1% v/v, Gibco), sodium pyruvate (1% v/v, Gibco) and 2‐mercaptoethanol (0.1% v/v, Gibco). Cells were stimulated with 1 µM cognate peptides or with Cell Stimulation Cocktail (a cocktail of phorbol 12‐myristate 13‐acetate (PMA) and ionomycin, Invitrogen) as positive controls at 37 °C for 4 h, in the presence of 10 µM brefeldin A (MedChemExpress) to inhibit cytokine secretion. Next, the cells were washed with 150 µl FACS buffer, and centrifuged with 1,500 g for 2 min. The supernatant was discarded and the cells were blocked with anti‐CD16/32 antibody (1:100, 93, 101302, BioLegend) in 20 µl/well FACS buffer at 4 °C for 15 min. Then 20 µl/well antibody cocktail containing anti‐CD3ε (1:500, 17A2, 100306, BioLegend), anti‐CD4 (1:500, RM4‐5, 100526, BioLegend), anti‐CD8β (1:500, YTS256.7.7, 126606, BioLegend), and anti‐CD45 (1:500, S18009F, 157211, BioLegend) was added to the cell mixture for 20 min incubation at 4 °C. […] Gate margins were determined on the basis of isotype controls and fluorescence‐minus‐one controls.
# [4] = tested on: C57BL/6 mice; assay: Antibody analysis for peptide immunogenicity; conditions: s.c., three doses of 5 mg kg−1 at two-week intervals, with Freund's adjuvant, OD450, n = 3
# Description: Eight‐week‐old wild‐type male mice were immunized for peptide immunogenicity assessments. Briefly, peptide solution was premixed 1:1 with Freund's adjuvant in a total volume of 400 µl by thorough vigorous shaking. Then peptide/adjuvant mixes were injected subcutaneously in 30 min at a dose of 5 mg kg^−1. Mice were immunized at 2‐week intervals. Negative controls (mock‐immunized) were also included in the study. One week after the third dose of immunization, blood was sampled for antibody analysis.
# For antibody analysis, the peptides were coated on the EIA/RIA plate (cat. no. 3590, Corning Inc. Life Sciences) in carbonate coating buffer (cat. no. CB01100, ThermoFisher) at 4 °C overnight. The next day the plate was blocked with 20% nonfat milk (cat. no. A0830,1000, AppliChem Panreac) for 24 h at 4 °C, and incubated with antibodies at the indicated dilution or at 37 °C for 1 h. Next, horseradish peroxidase‐linked anti‐mouse IgG (cat. no. LNA931V, GE Healthcare, USA) was added to the plate at a dilution of 1:1000 for 1 h at 37 °C. Between each step, the plate was washed with PBS at least three times. Then, 100 µl ultra TMB substrate solution (cat. no. 34028, ThermoFisher) was added to the plate at room temperature for 15 min, followed by the addition of 50 µl of stop solution (2 M H2SO4). The OD450 was measured by a plate reader (Tecan Spark, Tecan Group Ltd., Switzerland). Mouse anti‐HA antibody (cat. no. 901523, BioLegend, USA, 1:1000 dilution) was used as a positive control.
# [5] = tested on: T1D mice with HEK-XIP implants; assay: Serum inflammatory cytokines (ELISA); format: in vivo, mouse; conditions: four weeks after implantation, n = 5
# Description: The concentrations of interferon gamma (IFN‐γ), interleukin‐6 (IL‐6), and tumor necrosis factor alpha (TNF‐α) in mouse serum were assessed by the use of specific enzyme‐linked immunosorbent assay (ELISA) kits. IFN‐γ levels were analyzed using the IFN gamma mouse ELISA kit (cat. no. ab282874, Abcam), IL‐6 levels were determined with the IL‐6 mouse ELISA kit (cat. no. ab100712, Abcam), and TNF‐α levels were quantified utilizing the TNF alpha mouse ELISA kit (cat. no. BMS607HS, ThermoFisher). Freund's Complete Adjuvant (cat. no.: 344289, Sigma‐Aldrich) and lipopolysaccharides (cat. no.: L2630‐10MG, Sigma‐Aldrich) were utilized to induce cytokine production as positive controls. Blood samples were collected from mice treated with adjuvant and LPS 24 hours post‐treatment. The quantification of cytokines from these groups was conducted using the same ELISA kit.
# [6] = tested on: ComREXTRA (ComR-EpoR TM-IL-6RB); assay: SEAP reporter assay, ComREXTRA-based synthetic receptor, transiently transfected HEK-293T; format: cell-based, Streptococcus vestibularis; conditions: IL-6 50 ng/mL or XIP 50 μmol/L
# Description: Human embryonic kidney cells (HEK‐293T, ATCC: CRL‐11268), human telomerase‐immortalized mesenchymal stem cells (hMSC‐TERT),^[ [56] ^] human fibrosarcoma cells (HT‐1080, ATCC: CCL‐121), human cervical adenocarcinoma cells (HeLa, ATCC: CCL‐2), Chinese hamster ovary cells (CHO‐K1, ATCC: CCL‐61), baby hamster kidney cells (BHK‐21, ATCC: CCL‐10), and human liver cancer cells (Hep G2, ATCC: CRL‐11997) were cultured in Dulbecco's modified Eagle's medium (DMEM, cat. no. 52100–39, Thermo Fisher Scientific) containing 10% fetal bovine serum (FBS, cat. no. F7524, lot no. 022M3395, Sigma‐Aldrich) and 1% (v/v) streptomycin/penicillin (cat. no. L0022, Biowest). All mammalian cells were grown at 37 °C in a humidified atmosphere containing 5% CO2. For all transient transfections, 15 000 cells were seeded per well of a 96‐well plate (cat. no. 3599, Corning Inc. Life Sciences) overnight. Cells were transfected by mixing 100 ng of DNA and polyethyleneimine (PEI, 24765‐2, Polysciences) in a ratio of 1:4. […] The cell density was calculated using a cell counter (CellDrop BF Brightfield Cell Counter, DeNovix Inc.)
# SEAP reporter levels in cell culture supernatants were quantified using a colorimetric assay. […] Absorbance at 405 nm was recorded using a plate reader (Tecan Spark, Tecan Group Ltd., Switzerland) for 30 min at 37 °C to determine the SEAP levels.
compound,measurement,setting,value
"VPFFMIIC [Align1-9_VPFFMIIC, short peptide based on conserved human motif]",SEAP level vs non-induced (significance),[1],ns
"VPYFYYY [Align15_VPYFYYY, short peptide based on conserved human motif]",SEAP level vs non-induced (significance),[1],ns
"RPFFYYYY [Align3-4_RPFFYYYY, short peptide based on conserved human motif]",SEAP level vs non-induced (significance),[1],ns
CSCC[C@H](NC(=O)[C@H](Cc1ccccc1)NC(=O)[C@H](Cc1ccc(O)cc1)NC(=O)[C@@H]1CCCN1C(=O)[C@H](C)N)C(=O)NCC(=O)N[C@@H](Cc1ccc(O)cc1)C(=O)N[C@@H](Cc1ccc(O)cc1)C(=O)O [RE12] (H-APYFMGYY-OH),HEK-XIP cell viability,[2],ns
BAM8‐22 [reference compound],SEAP induction in HEK-XIP cells (result in words),[1],none of them displayed inducing activity
"PPFFYY [Align14/20_PPFFYY, short peptide based on conserved human motif]",SEAP level vs non-induced (significance),[1],ns
"APFFYY [Align19_APFFYY, short peptide based on conserved human motif]",SEAP level vs non-induced (significance),[1],ns
"RAPKFMIY [Align14_RAPKFMIY, short peptide based on conserved human motif]",SEAP level vs non-induced (significance),[1],ns
CC[C@H](C)[C@H](NC(=O)[C@H](CCSC)NC(=O)[C@H](Cc1ccccc1)NC(=O)[C@H](Cc1ccc(O)cc1)NC(=O)[C@@H]1CCCN1C(=O)[C@@H](N)C(C)C)C(=O)N[C@@H](Cc1ccc(O)cc1)C(=O)N[C@@H](Cc1ccc(O)cc1)C(=O)O [RE10] (H-VPYFMIYY-OH),HEK-XIP cell viability,[2],ns
"DPFFYY [Align18_DPFFYY, short peptide based on conserved human motif]",SEAP level vs non-induced (significance),[1],ns
CC(C)[C@H](N)C(=O)N1CCC[C@H]1C(=O)N[C@@H](Cc1ccccc1)C(=O)N[C@@H](Cc1ccccc1)C(=O)N[C@@H](Cc1ccc(O)cc1)C(=O)N[C@@H](Cc1ccc(O)cc1)C(=O)O [ID3] (H-VPFFYY-OH),Peptide-specific T-cell response,[3],no peptide‐specific T‐cell response was detected
same,Antibody response,[4],no detectable antibodies’ response
same,Antibody response,[4]; listed as XIP_ID3,ns
same,HEK-XIP cell viability,[2],ns
same,Serum IFN-γ (significance),[5]; vs non-induced,ns
same,Serum TNF-α (significance),[5]; vs non-induced,ns
same,Serum IL-6,[5]; undetectable,Below 0.82 pg/ml
C peptide [reference compound],SEAP induction in HEK-XIP cells (result in words),[1],none of them displayed inducing activity
"VPYFYY [Align16_VPYFYY, short peptide based on conserved human motif]",SEAP level vs non-induced (significance),[1],ns
"VPFFYYYY [Align1-2_VPFFYYYY, short peptide based on conserved human motif]",SEAP level vs non-induced (significance),[1],ns
"VPFYYYY [Align5-7_VPFYYYY, short peptide based on conserved human motif]",SEAP level vs non-induced (significance),[1],ns
APYFMIYY [RE11],HEK-XIP cell viability,[2],ns
VPFFMYY [ID1],SEAP induction in HEK-XIP cells (result in words),[1],significant fold inductions
"RPFHFMIY [Align15-20_RPFHFMIY, short peptide based on conserved human motif]",SEAP level vs non-induced (significance),[1],ns
"LPFFMIL [Align10-13_LPFFMIL, short peptide based on conserved human motif]",SEAP level vs non-induced (significance),[1],ns
"RPFFYY [Align10-12_RPFFYY, short peptide based on conserved human motif]",SEAP level vs non-induced (significance),[1],ns
"VPFYYY [Align8-9/17_VPFYYY, short peptide based on conserved human motif]",SEAP level vs non-induced (significance),[1],ns
interleukin 6 [IL-6],SEAP induction of XIPEXTRA system,[6]; n = 4,ns
same,SEAP induction of XIPEXTRA system,"[6]; n = 4, listed as IL‐6",no apparent induction; also recorded: no detectable activation
